Test results from patent US6835720B2, “Compounds having antiviral activity” (Nissin Food Products Co., Ltd., priority 1996, dated 2004).

Assays:
[1] = test system: Herpes simplex II virus (HSVII); experiment: Plaque reduction assay, Herpes simplex II virus; type: cell-based
Description: (§1) Antiviral activity against human Parainfluenza virus, Respiratory syncytial virus (RSV) and Herpes simplex II virus (HSVII) was determined by the plaque reduction assay, while that against Feline immunodeficiency virus (FIV) and Feline leukemia virus (FeLV) by the reverse transcriptase assay and ELISA, respectively.
(§2) Each virus was obtained from ATCC. As host cells, VERO cells were used for Parainfluenza virus, and HEP2 cells for other viruses.
(§3) To fibroblasts growing in a T150 flask were added virus-infected cells, and the cells were incubated until they reached 60-80% infection. Cells were trypsinized, recovered and used as the virus stock. As the cell culture medium was used E-MEM containing 2-5% FBS, 100 U/ml Penicillin, 2.5 μg/ml Aniphotericin and 10 μg/ml Gentamycin.
(§4) Compound related to Example 29 was appropriately diluted to the concentrations of 500, 100, 50, 10 and 5 μg/ml with the culture medium or methyl cellulose. As the reference drug for HSV II was used Acyclovir. […]
(§5) Cells were cultured at 36-38° C. under the 5-7% CO2 atmosphere, and examined for the appearance of plaques under microscope. […] Number of plaques counted in the sample well was compared with that in the virus control well, and the decrease in the number of plaques was used to express the antiviral activity.

human plasma = experiment: Anti-coagulation activity in human plasma; settings: calcium chloride, 37° C. for 30 min, judged with the naked eye
AIDS virus (HIV-1, IIIb) = type: cell-based; settings: HIV-1 IIIb in H9 cells, p24 in culture supernatant by ELISA on the 6th day
Description: (§6) Samples of various concentrations (25 μl) are distributed into a 24-well microplate, immediately added with human T cells (H9 cell line, 1.2×10^5/ml) (1 ml), covered, and incubated at 37° C. for 1 h. Then, AIDS virus (HIV-1, IIIb, 100 TCID 50) (25 μl) is added to each well and thoroughly mixed, covered again, and incubated under the CO2 atmosphere at 37° C. for 3 days. On the fourth day, aliquots (200 μl) of the culture medium from each well are transferred into a fresh microplate. The growth medium (500 μl) is added to each well, and further incubated for 2 days.
(§7) On the 6th day, aliquots (90 μl) of the culture supernatant are withdrawn, and assayed the amount of p24, a constituent of HIV-1, by ELISA method using the anti-p24 antibody to assess the growth of said virus. Also, using the remaining cell culture suspension (100 μl), viable cells are counted by the MTT method. Experimental values are expressed as the ratios (%) to the negative control value (measured using the solvent to dissolve test compounds as the sample) to represent the anti-HIV activity and cytotoxicity. Then, for the unified representation of the anti-HIV activity and cytotoxicity, the concentrations of test compounds at their 50% values are obtained from the activity-concentration curves and the cytotoxicity-concentration, and represented as IC50 and CC50, respectively.

[2] = test system: human T cells (H9 cell line); experiment: Cytotoxicity, viable cells counted by the MTT method; type: cell-based
Description: as §6, §7

mice = experiment: Toxicity study, intravenous administration to mice; type: in vivo; settings: intravenously administered
Description: Compounds were intravenously administered to mice, and LD50s (mg/kg) were determined.

[3] = test system: Feline immunodeficiency virus (FIV); experiment: Reverse transcriptase assay, Feline immunodeficiency virus; type: cell-based; settings: CRFK cells
Description: as §1
(§8) Each virus was obtained from ATCC. FIV was cultured with CRFK cells in Eagle's balanced salt medium containing 10% FBS, and the supernatant was used as the virus stock. As FeLV was used ATCC VR-717.
(§9) Compound related to Example 29 was diluted with the medium to similar concentrations described above.
(§10) For each single strain of virus, the assay was performed in the following combinations of conditions.
(§11) After CRFL cells were cultured in monolayer in 96-well microplates, the supernatant was discarded. […]
(§12) Using supernatants as the sample from the cell control well, the virus control well and the test well, the reverse transcriptase of FIV or FeLV antigen contained therein were quantitated using assay kits from Amersham LIFESCIENCE and Synbiotics, respectively. Anti-viral activity was expressed as that ratio (%) of the value of the test well to that of the virus control well after both values were subtracted with the value of the cell control well, respectively.

[4] = test system: Feline leukemia virus (FeLV); experiment: FeLV antigen ELISA, Feline leukemia virus; type: cell-based
Description: as §1, §8, §9, §10, §11, §12

[5] = test system: human Parainfluenza virus; experiment: Plaque reduction assay, Parainfluenza virus; type: cell-based; settings: VERO cells
Description: as §1, §2, §3, §4, §5

[6] = test system: Respiratory syncytial virus (RSV); experiment: Plaque reduction assay, Respiratory syncytial virus; type: cell-based; settings: HEP2 cells
Description: as §1, §2, §3, §4, §5

SMILES | IC50 ([1]; HEp-2, HEP2 cells) [µM] | Minimum concentration exhibiting anticoagulant action (human plasma) [µM] | IC50 (AIDS virus (HIV-1, IIIb)) [nM] | CC50 [2] [µM] | LD50 (mice) [mg/kg] | IC50 [3] [µM] | IC50 [4] [µM] | IC50 ([1]; HEP2 cells) [µM] | IC50 [5] [µM] | IC50 [6] [µM]
Nc1nc2c(ncn2COCCO)c(=O)[nH]1 [Acyclovir, reference compound] | 21.6 | – | – | – | – | – | – | – | – | –
CCCCCCCCCCCCCCCCCCCCCCOC[C@H](CO[C@]1(C(=O)[O-])C[C@H](OS(=O)(=O)[O-])[C@@H](NC(C)=O)[C@H]([C@H](OS(=O)(=O)[O-])[C@@H](COS(=O)(=O)[O-])OS(=O)(=O)[O-])O1)OCCCCCCCCCCCCCCCCCCCCCC.[Na+].[Na+].[Na+].[Na+].[Na+] [Example 12, 3-O-[Sodium{5-acetamido-3,5-dideoxy-4,7,8,9-tetra-O-(sodiumoxysulfonyl)-D-glycero-α-D-galacto-2-nonulopyranosyl}onate]-1,2-di-O-docosyl-Sn-glycerol] | – | 900 | 800 | > 200 | 2000 | – | – | – | – | –
CCCCCCCCCCCCCCCCCCCCCCOCC(COC1(C(=O)[O-])CC(OS(=O)(=O)[O-])C(NC(C)=O)C(C(OS(=O)(=O)[O-])C(COS(=O)(=O)[O-])OS(=O)(=O)[O-])O1)OCCCCCCCCCCCCCCCCCCCCCC.[Na+].[Na+].[Na+].[Na+].[Na+] [Example 13, 3-O-[Sodium{5-acetamido-3,5-dideoxy-4,7,8,9-tetra-O-(sodiumoxysulfonyl)-D-glycero-β-D-galacto-2-nonulopyranosyl}onate]-1,2-di-O-docosyl-Sn-glycerol] | – | 1200 | 1600 | > 200 | 2000 | – | – | – | – | –
CCCCCCCCCCCCCCCCCCCCCCOCC(C)(COCCCCCCCCCCCCCCCCCCCCCC)COC1(C(=O)[O-])CC(OS(=O)(=O)[O-])C(NC(C)=O)C(C(OS(=O)(=O)[O-])C(COS(=O)(=O)[O-])OS(=O)(=O)[O-])O1.[Na+].[Na+].[Na+].[Na+].[Na+] [Example 29, Sodium[2,2-bis(docosyloxymethyl)propyl 5-acetamido-3,5-dideoxy-4,7,8,9-tetra-O-(sodiumoxysulfonyl)-D-glycero-α-D-galacto-2-nonulopyranosid]onate] | – | 900 | 1600 | > 20 | 2000 | 4.5 | 58.3 | 45.2 | 37.6 | 5.1
